Results from patent US7030085B2, “Thiopeptide compounds” (Astellas Pharma INC, priority 2001, dated 2006).
Values after ≈ are worked out from the molar mass of the structure shown.

Key:
[1] = test system: Staphylococcus aureus CAY32001 (MRSA); assay: MIC determination, standard method of the Chemotherapy Society of Japan; type: cell-based
From the text: (§1) The minimal inhibitory concentration (MIC) of the compounds of the invention obtained in Example 1, QN3323A, QN3323-B, QN3323-Y1, thiocillin I, thiocillin II and micrococcin P2 against Staphylococcus aureus FDA209P (S. aureus), Staphylococcus epidermidis IID866 (S. epidezmidis), Enterococcus faecalis IID682 (E. Faecalis) and Enterococcus faecium CAY09—1 (E. faecium), as well as against drug-resistant bacteria, Staphylococcus aureus CAY32001 (MRSA) (S. aureus (MRSA)) and Enterococcus faecium CAY09—2 (VRE) (E. faecium (VRE)) was measured according to the standard method of the Chemotherapy Society of Japan (CHEMOTHERAPY, 1981, 29(1):76, revised minimal inhibitory concentration (MIC) determination method). The cells of S. aureus (MRSA) were incubated at 32° C.

[2] = test system: Enterococcus faecium CAY09—2 (VRE); assay: as above; type: cell-based
From the text: as §1

[3] = test system: Staphylococcus aureus FDA209P; assay: as above; type: cell-based
From the text: as §1

[4] = test system: Enterococcus faecium CAY09—1; assay: as above; type: cell-based
From the text: as §1

[5] = test system: Enterococcus faecalis IID682; assay: as above; type: cell-based
From the text: as §1

[6] = test system: Staphylococcus epidermidis IID866; assay: as above; type: cell-based
From the text: as §1

[7] = test system: Staphylococcus aureus Smith; assay: Remedial effect for infected mouse model; type: in vivo; details: male ICR(CD-1) mice infected intraabdominally with S. aureus Smith; compound subcutaneous two hours after infection; observed 4 to 7 days after treatment; probit method
Protocol: Remedial Effect for Infected Mouse Model
The compounds of the invention, QN3323-A, QN3323-B, thiocillin I and thiocillin II were tested using an infected mouse model to determine the effectivness thereof. Concretely, cells of Staphylococcus aureus Smith cultivated for 16 hours at 37° C. were suspended in 3% butamutin (by Tokyo Kasei), and the resulting cell suspension was intraabdominally infected into 4-week old male ICR(CD-1) mice (from Charles River of Japan, SPF) (about 3×10^6 CFU/mouse). Two hours after the infection, the compound of the invention dissolved in a solvent (10% DMSO, 10% HCO-60 (by Nikko Chemicals), 80% physiological saline), was subcutaneously administered to each mouse. On 4 to 7 days after the treatment, the mice were observed, and their ED50 value was calculated according to probit method.

[8] = S. aureus CAY32001 (MRSA), incubated at 32° C.

Row | MIC [1, 8] [µg/mL] | MIC ([2]; E. faecium CAY09—2 (VRE)) [µg/mL] | SMILES | MIC [3] [µg/mL] | MIC ([1]; Staphylococcus aureus, MRSA) [µg/mL] | MIC [4] [µg/mL] | MIC [5] [µg/mL] | MIC ([2]; Enterococcus faecium, VRE) [µg/mL] | MIC [6] [µg/mL] | ED5O [7] [mg/kg]
1 |  |  | C/C=C(\NC(=O)c1csc(-c2csc(-c3ccc4c(n3)-c3csc(n3)C(C(C)O)NC(=O)c3csc(n3)C(C(C)(C)O)NC(=O)c3csc(n3)/C(=C\C)NC(=O)C(C(C)O)NC(=O)c3csc-4n3)n2)n1)C(=O)NCC(C)O (centres unmarked) [QN3323-Y1] | 0.25 (≈ 0.215 µM) | 2 (≈ 1.72 µM) | 0.5 (≈ 0.431 µM) | 0.5 (≈ 0.431 µM) | 0.25 (≈ 0.215 µM) | 0.25 (≈ 0.215 µM) | 
2 | 0.78 (≈ 0.672 µM) | 0.78 (≈ 0.672 µM) | C/C=C(\NC(=O)c1csc(-c2csc(-c3ccc4c(n3)-c3csc(n3)[C@H]([C@@H](C)O)NC(=O)c3csc(n3)[C@H](C(C)(C)O)NC(=O)c3csc(n3)/C(=C/C)NC(=O)[C@H]([C@@H](C)O)NC(=O)c3csc-4n3)n2)n1)C(=O)NC[C@@H](C)O [Thiocillin I, thiocillin I] |  |  |  |  |  |  | 1.4
3 | 0.10 (≈ 0.0851 µM) | 0.05 (≈ 0.0426 µM) | C/C=C(/NC(=O)c1csc(-c2csc(-c3ccc4c(n3)-c3csc(n3)C(C(C)OC)NC(=O)c3csc(n3)C(C(C)(C)O)NC(=O)c3csc(n3)/C(=C\C)NC(=O)C(C(C)O)NC(=O)c3csc-4n3)n2)n1)C(=O)NCC(C)O (centres unmarked) [Thiocillin II, thiocillin II] |  |  |  |  |  |  | 2.2

Row | SMILES | MIC [1, 8] [µg/mL] | MIC ([2]; E. faecium CAY09—2 (VRE)) [µg/mL] | MIC [3] [µg/mL] | MIC ([1]; Staphylococcus aureus, MRSA) [µg/mL] | MIC [4] [µg/mL] | MIC [5] [µg/mL] | MIC ([2]; Enterococcus faecium, VRE) [µg/mL] | MIC [6] [µg/mL] | ED5O [7] [mg/kg]
4 | C/C=C(\NC(=O)c1csc(-c2csc(-c3ccc4c(n3)-c3csc(n3)[C@H]([C@@H](C)O)NC(=O)c3csc(n3)[C@H](C(C)C)NC(=O)c3csc(n3)/C(=C/C)NC(=O)[C@H]([C@@H](C)O)NC(=O)c3csc-4n3)n2)n1)C(=O)NCC(C)=O [Micrococcin P2, micrococcin P2] | 0.78 (≈ 0.683 µM) | 0.2 (≈ 0.175 µM) |  |  |  |  |  |  | 
